ChEMBL document CHEMBL1144063, “ent-kaurane diterpenoids from Isodon lungshengensis” (J Nat Prod, 1999)
In brackets after ≈: the same amount, converted by molar mass.

System: K562
Experiment: Cytotoxicity against human K-562 cells by MTT assay
Assay type: functional, cell-based

Compared with `C=C1C(=O)[C@]23C[C@H]1C[C@H](O)[C@H]2[C@@]1(C)[C@H]([C@@H](O)C3)C(C)(C)[C@@H](OC(C)=O)[C@@H](OC(C)=O)[C@@H]1O` [LUNGSHENGENIN A], `C=C1C(=O)[C@@]23CC(=O)[C@@H]4C(C)(C)[C@@H](OC(C)=O)[C@@H](OC(C)=O)[C@H](O)[C@@]4(C)[C@@H]2[C@@H](O)C[C@@H]1C3` [LUNGSHENGENIN G] is 3.6-fold lower in IC50: 11.7 mg/L (≈ 26 µM) for the first, 3.29 mg/L (≈ 7.34 µM) for the second.

In the case of `C=C1C(=O)[C@]23C[C@H]1C[C@H](O)[C@H]2[C@]1(C)C[C@H](OC(C)=O)[C@H](OC(C)=O)C(C)(C)[C@H]1[C@@H](OC(C)=O)C3` [LUNGSHENGENIN C], the IC50 is reported as 1.14 mg/L (≈ 2.39 µM).
